Consider one molecule from US20180289702A1, “LPA LEVEL REDUCTION FOR TREATING CENTRAL NERVOUS SYSTEM DISORDERS” (priority 2015, published 2018).

In assay [1] the test system is PRG-1 het mice. Nature of the assay: mEPSC recordings with HA-130. In kind it is cell-based.
For assay [2], the system named is neuronal hyperexcitability induced by Ketamine. Description: ketamine-induced potentiation of evoked local field potentials (LFPs). The class given is cell-based, mice. The source says:
This aim was to unravel whether ATX-inhibition is able to revert cortical hyperexcitability and an altered E/I balance independent of the underlying cause. As previously described (Nosyreva E et al. 2013), ketamine application inhibits spontaneous neurotransmission and induces afterwards a potentiation of synaptic responses over time (FIG. 8A).

In assay [3] the test system is PRG-1+/− mice. Description: double-pulse whisker stimulation model of sensory gating. The note with it: animals with monoallelic PRG-1-deficiency, ISI 500 ms. The class given is in vivo. The text has this:
In addition to analysis of spontaneous cortical network activity, the inventors assessed pre-attentive cortical information processing and measured sensory gating in a double-pulse whisker stimulation model (FIG. 4A). Local field potentials (recorded in the whisker-specific cortical barrel) in response to repetitive single-whisker stimulation elicited larger amplitudes to second stimulus in PRG-1^+/− when compared to wt (S1; S2; ISI=500 ms; FIG. 4B). […] These findings indicate that already loss of one functional allele of prg-1 as present in mutPRG-1 carriers, and thus a reduction of about 50% of functional PRG-1 at the synapse, causes an apparent E/I-imbalance in cortical networks and an altered sensory gating.

In assay [4] the test system is PRG-1+/− mice. Description: spontaneous postsynaptic currents (sPSC) with HA130. The class given is cell-based.
Assay [5] deals with PRG-1+/− mice. Nature of the assay: in vivo multi-unit activity (MUA) recordings in S1BF cortex. The settings on record: 1 μM applied into the cortex of living PRG-1+/− mice. The text has this: In order to characterize the role of PRG-1 in cortical networks, the inventors then assessed expression of PRG-1 in the cerebral cortex and found strong expression in layer IV of the mouse somatosensory barrel field cortex (FIG. 3A) which was restricted to glutamatergic neurons. […] To understand implications of such a reduced synaptic PRG-1 function in intracortical information processing, the inventors performed multi-channel extracellular recordings in the S1BF cortex of wt and PRG-1^+/- mice in vivo (FIG. 3D). […] This finding points to a change in the cellular E/I balance towards excitation within cortical microcircuitries which has been related to severe behavioral deficits (Yizhar et al., 2011).

With `O=C1S/C(=C\c2ccc(OCc3cccc(B(O)O)c3)cc2)C(=O)N1Cc1ccc(F)cc1` [HA130, (Z)-3-((4-((3-(4-Fluorobenzyl)-2,4-dioxo-1,3-thiazolan-5-yliden)-methyl)phenoxy)methyl)benzeneboronic acid], the “mEPSCs (spontaneous glutamatergic release at presynaptic terminals)” value in assay [1] (10 μM (FIG. 12B), genotype not stated in the panel legend) was “decreased”. Moreover, the mEPSCs entry in assay [1] (10 μM, PRG-1 het mice (FIG. 12A)) was “decreased”. Further, in assay [2] (10 μM during ketamine wash out / potentiation phase), the “ketamine-induced potentiation (evoked LFPs)” value is “significantly decreased”. Also, the “ketamine-induced potentiation, input-output curves” value in assay [2] (after HA-130 treatment) is given as “reverted to baseline values”. In assay [3], the S2/S1-ratio entry is listed as “reduced” and the sensory gating result is on record as “significantly restored”. In addition, the “spontaneous postsynaptic currents (sPSC)” value in assay [4] (1 μM) was “significant decrease”. Further, in assay [4] (10 μM), the “spontaneous postsynaptic currents (sPSC)” value is recorded as “significant decrease”. For the same molecule, the “number of multi-unit activity (MUA) bursts” value in assay [5] is listed as “significantly decreased”.
